What was measured:
Assay type in all cases: in vivo
rats [1] = experiment: Sedative effect (loss of the righting reflex) in rats; settings: 10 rats; dose of 0.5 mg/kg
Procedure: (§1) (C) The following tests concerning the sedative effect of 4-(2,6-dimethylbenzyl)imidazole and the inhibition of this effect with compound (I) were carried out in rats.
A dose of 0.5 mg/kg of 4-(2,6-dimethylbenzyl) imidazole was injected into 10 rats. This dose induced loss of the righting reflex for 1 h.

Calves (8) and Cows (7) = experiment: Awakening from detomidine-induced sedation, calves and cows; settings: detomidine 0.04-0.06 mg/kg i.m., compound (I) i.v. after 30 min, same dose as detomidine
Procedure: (§2) Trials were carried out as follows: • (A) A dose of 0.04-0.06 mg/kg of detomidine was injected i.m. into the test animals. After exactly 30 min. compound (I) was given intravenously. The awakening of the animal or its recovery from the sedation was then observed. Calves (8) and Cows (7) recovered from detomidine-induced sedation in 2 to 5 minutes from the injection of compound (I). Horses (4) awoke in 5 to 10 min. The awakening effect of compound (I) was found stable for both species. […] For the calves and cows, the dose of compound (I) was the same as the dose of detomidine. For the horses, the dose of compound (I) was five times greater than that of detomidine. • (B) A dose of 2 mg/kg of xylazine was injected i.m. into 10 dogs. This injection induced sedation which lasted for 0.5 - 1 hr. During this time the dogs were able to walk only with difficulty.

Horses (4) = experiment: Awakening from detomidine-induced sedation, horses; settings: detomidine 0.04-0.06 mg/kg i.m., compound (I) i.v. after 30 min, dose five times greater than that of detomidine
Procedure: as §2

dogs = experiment: Awakening from xylazine-induced sedation in dogs; settings: compound (I) 0.1 - 0.3 mg/kg i.v. 20 min. after 2 mg/kg of xylazine
Procedure: In other experiments compound (I) was given at a dose of 0.1 - 0.3 mg/kg i.v. 20 min. after the injection of 2 mg/kg of xylazine. The awakening of the dogs and their recovery from the sedation was observed. The dogs recovered from the xylazine-induced sedation in 2 - 3 minutes after the administration of compound (I).

rats [2] = experiment: Inhibition of the sedative effect of 4-(2,6-dimethylbenzyl)imidazole in rats (spontaneous locomotor activity, activity meter); settings: compound (I) 1-3 mg/kg i.v. or i.p., 15 minutes after 4-(2,6-dimethylbenzyl)imidazole
Procedure: as §1
In other tests, compound (I) was given i.v. or i.p. to rats at a dose of 1-3 mg/kg, 15 minutes after the administration of 4-(2,6-dimethylbenzyl)imidazole. The recovery of the animals from the sedation was observed by measuring their spontaneous locomotor activity with an activity meter.

horses and cattle = experiment: Sedative and analgesic effect of detomidine in horses and cattle; settings: i.m. or i.v.
Excerpt: This invention relates to the preparation of 2-[2-(1,4-benzodioxanyl)]-2-imidazoline, and to its use. Detomidine, which has the formula [drawing 1] is a known compound with sedative and analgesic effect in animals. The potency and the duration of the effect can be regulated by the dosage. The compound is very potent; dosages as small as […] given by injection provide a clinical response. Detomidine is used in veterinary medicine especially in the handling of horses and cattle (pharmacological restraint). The animal is sedated before investigation, treatment and difficult medical operations. Even small surgical operations cannot be carried out without the use of a sedative agent.
The analgesic effect is dose dependent. […] Table 1: The effect of detomidine in horses and cattle. Dosage i.m. or i.v.

Structure (SMILES): Cc1cccc(C)c1Cc1c[nH]cn1 [4-(2,6-dimethylbenzyl) imidazole, 4-(2,6-dimethylbenzyl)imidazole]
- duration of loss of the righting reflex (rats [1]): 1 h

Structure (SMILES): c1ccc2c(c1)OCC(C1=NCCN1)O2 (stereo not drawn) [compound (I), 2-[2-(1,4-benzodioxanyl)]-imidazoline]
- awakening effect (Calves (8) and Cows (7)): stable
- side-effects (Calves (8) and Cows (7)): No side-effects were observed
- awakening effect (Horses (4)): stable
- side-effects (Horses (4)): No side-effects were observed
- awakening effect (dogs): stable
- side-effects (dogs): No side-effects were observed
- counteraction of the sedative effect of 4-(2,6-dimethylbenzyl)imidazole (rats [2]): fully counteract
- time to counteract the sedative effect of 4-(2,6-dimethylbenzyl)imidazole after the administration of compound (I) (rats [2]): 1 to 5 min

Structure (SMILES): Cc1cccc(Cc2c[nH]cn2)c1C [detomidine, Detomidine]
- Delay before the effect begins (horses and cattle; dose 20-40 µg/kg): 3 to 5 min
- Effect (horses and cattle; dose 20-40 µg/kg): easy to handle; short effect
- Other effects (horses and cattle; dose 20-40 µg/kg): slight stagger-ing
- Delay before the effect begins (horses and cattle; dose 40-80 µg/kg): 2 to 5 min
- Effect (horses and cattle; dose 40-80 µg/kg): strong effect
- Other effects (horses and cattle; dose 40-80 µg/kg): stagger-ing, sweating pilo-erection, muscular tremor
- Delay before the effect begins (horses and cattle; dose 80-150 µg/kg): 1 to 5 min
- Duration of the effect (horses and cattle; dose 80-150 µg/kg): 2 to 6 h
- Other effects (horses and cattle; dose 80-150 µg/kg): Strong stagger-ing, pilo-erection, sweating, diuresis

— patent EP0138358A1, “The preparation and use of 2-[2-(1,4-benzodioxanyl)]-2-imidazoline in therapy” (Farmos-Yhtyma Oy, priority 1983, dated 1985)
